{
  "source": "patent US6541507B1",
  "about": "“Indolecarboxylic compounds for inducing/stimulating hair growth and/or retarding hair loss” (Societe L'Oreal S.A., priority 1999, dated 2003)",
  "key": {"Type I 5α-reductase": {"target": "T1, Type I 5α-reductase (Homo sapiens, UniProt P18405)", "T1 construct": "made in house; host or cells: COS7 cells (ATCC, CRL 1651), transient transfection with pSG5; 100,000×g pellet of the lysate", "T1 sequence (P18405 1-259)": "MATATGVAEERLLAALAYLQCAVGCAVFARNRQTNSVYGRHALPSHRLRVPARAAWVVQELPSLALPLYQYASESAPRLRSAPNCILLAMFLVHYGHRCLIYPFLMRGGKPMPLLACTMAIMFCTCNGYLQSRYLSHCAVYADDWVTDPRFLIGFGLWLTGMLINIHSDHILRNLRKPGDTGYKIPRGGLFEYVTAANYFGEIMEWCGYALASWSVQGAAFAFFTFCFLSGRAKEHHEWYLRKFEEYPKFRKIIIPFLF", "assay": "Inhibition of type I 5α-reductase (14C-testosterone to dihydrotestosterone, transfected COS7 cell lysate)", "type": "biochemical", "source_text": "(§1) The coding sequences (complementary deoxyribonucleic acids: cDNAs) of 5α-reductase I and of 5α-reductase II were cloned into the eukaryotic expression vector pSG5 (Stratagene). The enzymes were overexpressed after transient transfection of COS7 cells (ATCC, CRL 1651). The 5α-reductase I and 5α-reductase II cDNAs were obtained by reverse transcription and polymerase chain reaction (PCR) using specific primers from human testicle total RNA (marketed by Clontech).\nThe primers (SEQ ID NOS.: 1 and 2) used to obtain the 5α-reductase I cDNA were:\n+strand: 5′[…] 3′,\n−strand: 5′[…] 3′.\n(§2) The 5α-reductase I cDNA obtained was inserted, by standard genetic engineering techniques, into the BamHI site of pSG5 and the 5α-reductase II cDNA obtained was inserted into the EcoRI site (see Maniatis et al., Molecular Cloning, Cold Spring Harbor, 1989). […]\n(§3) The reaction mixtures were then deposited directly on a silica plate (HPTLC, 60F 254, Merck) and subjected to chromatography (solvent=10% diethyl ether, 90% dichloromethane). They were then analyzed by digital autoradiography (Digital Autoradiography, Berthold).\n(§4) The inhibition of the activity of the isoenzymes was measured by calculating the percentage of dihydrotestosterone formed from ^14C-testosterone relative to an untreated control."}, "Type II 5α-reductase": {"target": "T2, Type II 5α-reductase (Homo sapiens, UniProt P31213)", "T2 construct": "made in house; host or cells: COS7 cells (ATCC, CRL 1651), transient transfection with pSG5; 100,000×g pellet of the lysate", "T2 sequence (P31213 1-254)": "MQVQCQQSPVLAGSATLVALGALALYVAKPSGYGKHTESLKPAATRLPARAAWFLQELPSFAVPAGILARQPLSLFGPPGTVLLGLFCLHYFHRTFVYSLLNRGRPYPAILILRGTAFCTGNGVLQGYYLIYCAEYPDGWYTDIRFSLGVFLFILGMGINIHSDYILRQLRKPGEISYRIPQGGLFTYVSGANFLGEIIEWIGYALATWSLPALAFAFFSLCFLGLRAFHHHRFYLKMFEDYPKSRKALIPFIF", "assay": "Inhibition of type II 5α-reductase (14C-testosterone to dihydrotestosterone, transfected COS7 cell lysate)", "type": "biochemical", "source_text": "as §1\nThe primers (SEQ ID NOS.: 3 and 4) used to obtain the 5α-reductase II cDNA were:\n+strand: 5′GCGATGCAGGTTCAGTG 3′,\n−strand: 5′ATTGTGGGAGCTCTGCT 3′.\nas §2, §3, §4"}},
  "data": [
    {"smiles": "COc1cc(OC)c2cc(C(=O)O)[nH]c2c1", "note": "[4,6-dimethoxyindole-2-carboxylic acid]", "values": [
      {"measurement": "IC50", "setting": "Type I 5α-reductase; 40 mM pH 6.5 phosphate buffer, 1 nM 14C-testosterone, 5 mM NADPH, 50 minutes at 37° C.", "value": 50, "unit": "µM"},
      {"measurement": "inhibitory effect on the 5α-reductases (type I)", "setting": "Type I 5α-reductase; statement in words", "value": "no inhibitory effect"},
      {"measurement": "IC50", "setting": "Type II 5α-reductase; 40 mM pH 5.5 citrate buffer, 1 nM 14C-testosterone, 5 mM NADPH, 50 minutes at 37° C.", "value": "> 50", "unit": "µM"},
      {"measurement": "inhibitory effect on the 5α-reductases (type II)", "setting": "Type II 5α-reductase; statement in words", "value": "no inhibitory effect"}
    ]}
  ]
}
